Test results from patent US7569517B2, “4-biphenyl-substituted pyrazolidin-3 5-diones pesticide agent and/or microbicide and/or herbicide” (Bayer CropScience AG, priority 2003, dated 2009).

Experiments:
Type in all cases: in vivo
[1] = tested on: monocotyledonous and dicotyledonous weed and crop plants (cereals); assay: Herbicidal post-emergence action, use of safeners, container trials with cereals in the greenhouse (Example I); conditions: without safener
Protocol: (§1) Herbicidal Post-emergence Action
Seeds of monocotyledonous and dicotyledonous weed and crop plants are placed into sandy loam in wood fibre pots or in plastic pots, covered with soil and cultivated in a greenhouse, during the vegetation period also outdoors outside of the greenhouse, under good growth conditions. 2-3 weeks after sowing, the test plants are treated at the one- to three-leaf stage. The test compounds, formulated as wettable powders (WP), or emulsifiable concentrates (EC), are, in various dosages with a water application rate of 300 l/ha (converted), with wetting agent (0.2 to 0.3%) added, sprayed onto the plants and the surface of the soil. 3-4 weeks after the treatment of the test plants, the effect of the preparations is rated visually in comparison to untreated controls (herbicidal effect in precent (%): 100% effect=the plants have died, 0% effect=like control plants).
If it is additionally to be tested whether safeners can improve the plant compatibility of test substances in the case of the crop plants, the following option is used for applying the safener: • seeds of the crop plants are, before sowing, dressed with the safener substance (the amount of safener is stated in percent, based on the weight of seed) • before the application of the test substances, the crop plants are sprayed with the safener at a certain application rate per hectare (usually 1 day before the application of the test substances) • the safener is applied together with the test substance as a tank mix (the amount of safener is stated in g/ha or as a ratio, based on the herbicide).
By comparing the effect of test substances on crop plants without or with safener treatment, it is possible to assess the effect of the safener substance.

[2] = tested on: greenhouse red spider mite (Tetranychus urticae); assay: Tetranychus test (OP-resistance/spray treatment) (Example E); conditions: 100 g/ha; sprayed bean leaf discs
Protocol: Tetranychus Test (OP-resistance/Spray Treatment)
• Solvents: 78 parts by weight of acetone • 1.5 parts by weight of dimethylformamide • Emulsifier: 0.5 part by weight of alkylaryl polyglycol ether
To prepare a suitable preparation of active compound, 1 part by weight of active compound is mixed with the stated amounts of solvents and emulsifier, and the concentrate is diluted with emulsifier-containing water to the desired concentration.
Discs of bean leaves (Phaseolus vulgaris) which are infested by all stages of the greenhouse red spider mite (Tetranychus urticae) are sprayed with a preparation of active compound of the desired concentration.
After the desired period of time, the activity in % is determined. 100% means that all spider mites have been killed; 0% means that none of the spider mites have been killed.

[3] = tested on: monocotyledonous and dicotyledonous weed and crop plants; assay: Herbicidal post-emergence action (Example H); conditions: greenhouse, 320 g of a.i./ha
Protocol: as §1
Seeds of monocotyledonous and dicotyledonous weed and crop plants are placed into sandy loam in wood fibre pots, covered with soil and cultivated in a greenhouse under good growth conditions. 2-3 weeks after sowing, the test plants are treated at the one-leaf stage. The test compounds, formulated as wettable powders (WP), are, in various dosages with a water application rate of 600 l/ha (converted), with 0.2% of wetting agent added, sprayed onto the green parts of the plants. After the test plants were kept in a greenhouse under optimum growth conditions for about 3 weeks, the effect of the preparations is rated visually in comparison to untreated controls (herbicidal effect in percent (%): 100% effect=the plants have died, 0% effect=like control plants).

[4] = tested on: monocotyledonous and dicotyledonous weed and crop plants; assay: Herbicidal pre-emergence action (Example G); conditions: greenhouse, 320 g of a.i./ha
Source text: Herbicidal Pre-emergence Action
Seeds of monocotyledonous and dicotyledonous weed and crop plants are placed into sandy loam in wood fibre pots and covered with soil. The test compounds, formulated in the form of wettable powders (WP), are then, in various dosages as aqueous suspension with a water application rate of 600 l/ha (converted), with 0.2% of wetting agent added, applied to the surface of the covering soil. After the treatment, the pots are placed in a greenhouse and kept under good growth conditions for the test plants. The visual assessment of the emergence damage on the test plants is carried out after a trial period of 3 weeks by comparison with untreated controls (herbicidal effect in percent (%): 100% effect=the plants have died, 0% effect=like control plants).

Meloidogyne incognita = assay: Meloidogyne test (Example A); conditions: 20 ppm active compound; nematicidal action by formation of galls on lettuce roots; 100% = no galls
Protocol: • Solvent: 7 parts by weight of dimethylformamide • Emulsifier: 2 parts by weight of alkylaryl polyglycol ether
To produce a suitable preparation of active compound, 1 part by weight of active compound is mixed with the stated amounts of solvent and emulsifier, and the concentrate is diluted with water to the desired concentration.
Containers are filled with sand, solution of active compound, Meloidogyne incognita egg/larvae suspension and lettuce seeds. The lettuce seeds germinate and the plants develop. On the roots, galls are formed.
After the desired period of time, the nematicidal action is determined in % by the formation of galls. 100% means that no galls were found; 0% means that the number of galls on the treated plants corresponds to that of the untreated control.

With `Cc1cc(-c2ccc(Cl)cc2)cc(C)c1C1(Cl)C(=O)N2CCOCCN2C1=O` [Ex. I-4-1] the “Summer barley observed (%)” value ([1]; 25 g of a.i./ha) was 40%, the “Summer wheat observed (%)” value ([1]; 25 g of a.i./ha) was 60% and the “Summer barley observed (%)” value ([1]; 50 g of a.i./ha) was 95%. The “Summer wheat observed (%)” value ([1]; 50 g of a.i./ha) was 97%, the “Summer barley observed (%)” value ([1]; 100 g of a.i./ha) was 97% and the “Summer wheat observed (%)” value ([1]; 100 g of a.i./ha) was 97%. The “Kill rate in % after 5d” value [2] was 90%, the “herbicidal effect, Alopecurus” value ([3]; Alopecurus) was 80% and the “herbicidal effect, Digitaria” value ([3]; Digitaria) was 100%. The “herbicidal effect, Lolium” value ([3]; Lolium) was 80%, the “herbicidal effect, Setaria” value ([3]; Setaria) was 100% and the “herbicidal effect, Sugarbeets” value ([3]; Sugarbeets) was 10%. For the same compound, the “herbicidal effect, Echinochloea” value ([4]; Echinochloea) was 70%, the “herbicidal effect, Setaria” value ([4]; Setaria) was 80% and the “herbicidal effect, Sorghum” value ([4]; Sorghum) was 70%. The “herbicidal effect, Soybeans” value ([4]; Soybeans) was 0% and the “herbicidal effect, Wheat” value ([4]; Wheat) was 0%.

In the case of `Cc1cc(-c2ccc(Cl)cc2)cc(C)c1C1(Cl)C(=O)N2CCCCN2C1=O` [Ex. I-3-1], the “Summer barley observed (%)” value ([1]; 50 g of a.i./ha) is reported as 80%, the “Summer wheat observed (%)” value ([1]; 50 g of a.i./ha) is reported as 60% and the “Summer barley observed (%)” value ([1]; 100 g of a.i./ha) is reported as 80%. For the same compound, the “Summer wheat observed (%)” value ([1]; 100 g of a.i./ha) was 60% and the “Effect in % after 14d” value (Meloidogyne incognita) was 100%.
